According to ChEMBL document CHEMBL5233220, “A review of currently identified small molecule modulators of microRNA function” (Eur J Med Chem, 2020):
pEC50, pIC50, pKd: −log10 of the molar value. Where “and” joins values, the source holds several entries; their conditions need not be identical. Equal entries are not always repeated. Structures can show the parent of a compound that is named as a salt.

Experiments:
[1] = Inhibition of miR-27a (unknown origin) maturation at 5 uM relative to control
[2] = Binding affinity to pre-miR-21 (unknown origin) assessed as dissociation constant by fluorescence-based assay
[3] = Inhibition of pre-miR-373 (unknown origin) by FRET assay
[4] = Inhibition of pre-miR-373 (unknown origin) at 250 uM by FRET assay relative to control
[5] = Inhibition of pre-miR-372 (unknown origin) by FRET assay
[6] = Binding affinity to pre-miR-21 (unknown origin) at A bulge assessed as dissociation constant by dicer assay
[7] = Binding affinity to pre-miR-21 (unknown origin) assessed as dissociation constant by microarray assay
[8] = Binding affinity to pre-miR-373 (unknown origin) assessed as dissociation constant
BCL1 = assay: Inhibition of cell growth in mouse BCL1 cells; type: functional, cell-based
[9] = Inhibition of miR-122 (unknown origin) assessed as relative light unit by luciferase assay
Protein lin-28 homolog A = target: T1, Protein lin-28 homolog A (Homo sapiens, UniProt Q9H9Z2); assay: Inhibition of LIN28A (unknown origin) by FRET assay
T1 sequence (Q9H9Z2 whole entry): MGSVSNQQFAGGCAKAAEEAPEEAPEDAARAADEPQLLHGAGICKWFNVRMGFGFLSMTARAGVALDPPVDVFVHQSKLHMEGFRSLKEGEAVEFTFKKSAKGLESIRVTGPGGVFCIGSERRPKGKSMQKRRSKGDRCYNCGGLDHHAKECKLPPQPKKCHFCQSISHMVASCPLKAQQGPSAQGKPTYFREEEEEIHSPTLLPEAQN

MCF7 = assay: Inhibition of miR-122 in human MCF7 cells relative to control; type: cell-based; conditions: dose or concentration not given here
[10] = Inhibition of pre-miR-21 (unknown origin) by FP assay
Protein argonaute-2 = Protein argonaute-2 (Homo sapiens, UniProt Q9UKV8); assay: Inhibition of AGO2 (unknown origin)
Chain of Protein argonaute-2 (Q9UKV8 whole entry): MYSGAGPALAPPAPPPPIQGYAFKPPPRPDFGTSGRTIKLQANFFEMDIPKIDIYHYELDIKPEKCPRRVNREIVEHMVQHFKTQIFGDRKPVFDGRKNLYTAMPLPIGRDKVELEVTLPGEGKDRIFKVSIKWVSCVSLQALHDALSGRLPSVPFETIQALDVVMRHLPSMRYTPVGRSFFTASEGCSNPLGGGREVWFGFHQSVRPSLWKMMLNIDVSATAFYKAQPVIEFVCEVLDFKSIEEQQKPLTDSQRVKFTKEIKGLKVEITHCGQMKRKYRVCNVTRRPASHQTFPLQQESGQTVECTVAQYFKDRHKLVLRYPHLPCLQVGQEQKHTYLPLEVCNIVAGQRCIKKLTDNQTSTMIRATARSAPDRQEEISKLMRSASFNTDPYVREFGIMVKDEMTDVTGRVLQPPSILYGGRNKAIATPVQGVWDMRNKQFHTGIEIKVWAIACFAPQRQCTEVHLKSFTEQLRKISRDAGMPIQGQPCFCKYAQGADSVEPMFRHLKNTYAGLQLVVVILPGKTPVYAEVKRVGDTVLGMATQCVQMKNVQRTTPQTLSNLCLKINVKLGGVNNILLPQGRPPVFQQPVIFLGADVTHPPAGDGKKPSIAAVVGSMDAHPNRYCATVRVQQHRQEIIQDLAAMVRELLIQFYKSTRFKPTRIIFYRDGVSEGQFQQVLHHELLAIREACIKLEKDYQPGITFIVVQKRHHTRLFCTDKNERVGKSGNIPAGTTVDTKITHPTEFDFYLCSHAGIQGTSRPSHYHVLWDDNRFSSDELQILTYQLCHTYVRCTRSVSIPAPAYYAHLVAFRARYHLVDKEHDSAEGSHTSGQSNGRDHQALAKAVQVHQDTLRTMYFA

HeLa [11] = assay: Inhibition of pre-miR-21 in human HeLa cells by qRT-PCR assay relative to control; type: cell-based; conditions: dose or concentration not given here
[12] = Inhibition of miR-21 in human HeLa cells by luciferase assay; type: cell-based
HeLa [13] = assay: Inhibition of miR-21 in human HeLa cells by qRT-PCR assay relative to control; type: cell-based; conditions: dose or concentration not given here
[14] = Inhibition of miR-122 (unknown origin) by luciferase assay
Huh-7 = assay: Inhibition of miR-122 in human Huh-7 cells relative to control; type: cell-based; conditions: dose or concentration not given here
[15] = Binding affinity to pre-miR-21 (unknown origin) assessed as melting temperature by differential scanning fluorimetry analysis
[16] = Binding affinity to miR-96 (unknown origin) assessed as dissociation constant; set-up: species or system Homo sapiens
[17] = Activation of miR-122 (unknown origin) by luciferase assay
[18] = Activation of miR-122 (unknown origin) assessed as relative light unit by luciferase assay; conditions: filed as activator
HeLa [19] = assay: Inhibition of miR-96 maturation in human HeLa cells at 40 uM by luciferase assay relative to control; type: cell-based
[20] = Inhibition of pre-miR-21 (unknown origin) at 5 uM by FP assay relative to control

NC[C@H]1O[C@H](O[C@H]2[C@H](O)[C@@H](O[C@H]3O[C@H](CO)[C@@H](O)[C@H](N)[C@H]3O)[C@H](N)C[C@@H]2N)[C@H](O)[C@@H](O)[C@@H]1O
inhibition [1]: 25%

O=c1cc(N2CCC(N3CCCC3)CC2)c2ccccc2o1
pKd [2]: 4.64

NC[C@@H]1O[C@H](O[C@H]2[C@@H](O)[C@H](O[C@@H]3[C@@H](O)[C@H](N)C[C@H](N)[C@H]3O[C@H]3O[C@H](CN)[C@@H](O)[C@H](O)[C@H]3N)O[C@@H]2n2cc(Cn3cnc(-c4cccc(NC(=O)c5ccccc5)c4)c3)nn2)[C@H](N)[C@@H](O)[C@@H]1O
pIC50 [3]: 5.05 | inhibition [4]: 20% | pIC50 [5]: 5.08

COc1cccc2c1C(=O)c1c(O)c3c(c(O)c1C2=O)C[C@@](O)(C(=O)CO)C[C@@H]3O[C@H]1C[C@H](N)[C@@H](O)[C@H](C)O1 [EPIRUBICIN]
pKd [6]: 7.62

CCCOc1ccc(NCC(O)Cn2c3ccc(Br)cc3c3cc(Br)ccc32)cc1 (stereo not drawn)
pKd [7]: 5.66

CC(=O)Nc1csc(-c2cccc(NC(=O)CCc3cn([C@H]4O[C@@H](O[C@@H]5[C@@H](O)[C@H](N)C[C@H](N)[C@H]5O[C@H]5O[C@H](CN)[C@@H](O)[C@H](O)[C@H]5N)[C@H](O)[C@@H]4O[C@H]4O[C@@H](CN)[C@@H](O)[C@H](O)[C@H]4N)nn3)c2)n1
pIC50 [3]: 5.29 | inhibition [4]: 20% | pKd [8]: 7.85 | pIC50 [5]: 5.61

O=[N+]([O-])c1ccc2nc(-c3ccccc3)nc(-c3ccccc3)c2c1
pEC50 (BCL1): 4.70

COc1ccccc1CCNC1CC(=O)C(c2ccc(C)cc2)C1=O (stereo not drawn)
pKd [2]: 4.42

O=C(Nc1ccc2ccccc2c1)c1ccc([N+](=O)[O-])cc1
Activity [9]: 6.2 RLU

CC1(C)Oc2cc(N3CCN(C(=O)OCc4ccccc4)CC3)c([N+](=O)[O-])cc2-c2c1cnn2-c1ccc(C(=O)O)cc1
pIC50 (Protein lin-28 homolog A): 5.39

O=C(c1ccccc1)c1c2c3c(cccc3c3ccccc13)C(=O)C=C2
inhibition (MCF7): 30%

O=C(O)c1ccc2nc3c4c(O)ccc(O)c4c(=O)c(Cl)c-3oc2c1
pIC50 [10]: 5.33

Cc1ccc(C(=O)Nc2ccc(S(=O)(=O)O)c3cc(S(=O)(=O)O)cc(S(=O)(=O)O)c23)cc1NC(=O)c1cccc(NC(=O)Nc2cccc(C(=O)Nc3cc(C(=O)Nc4ccc(S(=O)(=O)O)c5cc(S(=O)(=O)O)cc(S(=O)(=O)O)c45)ccc3C)c2)c1 [SURAMIN]
pIC50 (Protein argonaute-2): 6.16

C#CCNC(=O)c1ccc(/N=N/c2ccccc2)cc1
inhibition (HeLa [11]): 87% | pEC50 [12]: 5.70 | inhibition (HeLa [13]): 87%

O=S(=O)(c1ccc2c(c1)CCCN2)N1CCC[C@H]2CCCC[C@@H]21
pIC50 [14]: 6.22 | Activity [9]: 0.6 RLU | inhibition (Huh-7): 47%

O=[N+]([O-])c1ccc2nc(-c3ccccc3O)nc(-c3ccccc3)c2c1
pEC50 (BCL1): 4.70

NC(Cc1cc(O)c(O)cc1O)C(=O)O (stereo not drawn)
pIC50 [10]: 5.15

NC[C@@H]1O[C@H](O[C@H]2[C@@H](O)[C@H](O[C@@H]3[C@@H](O)[C@H](N)C[C@H](N)[C@H]3O[C@H]3O[C@H](CN)[C@@H](O)[C@H](O)[C@H]3N)O[C@@H]2n2cc(CCC(=O)NCC(=O)Nc3nc4ccccc4[nH]3)nn2)[C@H](N)[C@@H](O)[C@@H]1O
pIC50 [3]: 5.07 | inhibition [4]: 20% | pIC50 [5]: 4.99

NC[C@@H]1O[C@H](O[C@H]2[C@@H](O)[C@H](O[C@@H]3[C@@H](O)[C@H](N)C[C@H](N)[C@H]3O[C@H]3O[C@H](CN)[C@@H](O)[C@H](O)[C@H]3N)O[C@@H]2CO)[C@H](N)[C@@H](O)[C@@H]1O [FRAMYCETIN]
pIC50 [3]: 3.75 | inhibition [1]: 25% | inhibition [4]: 100% | pIC50 [5]: 3.90

CCOc1ccc(NCC(O)Cn2c3ccc(Br)cc3c3cc(Br)ccc32)cc1 (stereo not drawn)
pKd [7]: 5.92

O=S(=O)(Nc1ccccc1)c1ccc2c(c1)CCCN2
Activity [9]: 9.9 RLU

NC[C@H]1O[C@H](O[C@H]2[C@H](O)[C@@H](O[C@H]3O[C@H](CO)[C@@H](O)[C@H](N)[C@H]3O)[C@H](N)C[C@@H]2N)[C@H](N)C[C@@H]1O
inhibition [1]: 10%

Cc1ccccc1NCC(O)Cn1c2ccc(Br)cc2c2cc(Br)ccc21 (stereo not drawn)
Tm [15]: -5.1 °C | pKd [7]: 5.64

CC(=O)c1ccc(C(=O)Nc2ccc3ccccc3c2)cc1
Activity [9]: 6.7 RLU

O=C(Nc1ccc2ccccc2c1)c1ccc(Cl)cc1Cl
pIC50 [14]: 5.52 | Activity [9]: 7.73 RLU | inhibition (Huh-7): 48%

C/C(=N\NC(=O)c1ccccn1)c1c(C)[nH]n(-c2ccccc2)c1=O
pKd [2]: 3.96

N=C(N)NCc1ccc(Oc2ccccc2)cc1
pIC50 (Protein argonaute-2): < 3.00

CCCN(CC(=O)N(CCC)CC(=O)N(CC(N)=O)Cc1cn(CCCNC(=O)CCCOc2c(C(C)(C)C)cc(-c3nc4cc(N5CCN(C)CC5)ccc4[nH]3)cc2C(C)(C)C)nn1)C(=O)CCCOc1cccc(-c2nc3ccc(-c4nc5ccc(N6CCN(C)CC6)cc5[nH]4)cc3[nH]2)c1
pKd [16]: 6.70

CN(C)CCN1C(=O)c2cccc3cc(N)cc(c23)C1=O [AMONAFIDE]
pIC50 [17]: 5.52 | Activity [18]: 0.11 RLU

NC[C@@H]1O[C@H](O[C@H]2[C@@H](O)[C@H](O[C@@H]3[C@@H](O)[C@H](N)C[C@H](N)[C@H]3O[C@H]3O[C@H](CN)[C@@H](O)[C@H](O)[C@H]3N)O[C@@H]2n2cc(CCc3nc4cc(NC(=O)Nc5ccccc5)ccc4o3)nn2)[C@H](N)[C@@H](O)[C@@H]1O
pIC50 [3]: 6.27 | inhibition [4]: 20% | pKd [8]: 7.85 | pIC50 [5]: 5.38

CN1CCN(c2ccc3nc(-c4cc(C(C)(C)C)c(OCCCC(=O)NCCCN=[N+]=[N-])c(C(C)(C)C)c4)[nH]c3c2)CC1
inhibition (HeLa [19]): 90%

COc1cccc2c1C(=O)c1c(O)c3c(c(O)c1C2=O)C[C@@](O)(C(=O)CO)C[C@@H]3O[C@H]1C[C@H](N)[C@H](O)[C@H](C)O1 [DOXORUBICIN]
pKd [6]: 7.24

CCOc1cccc2c1N[C@@H](c1ccc(C(=O)O)cc1)[C@H]1CC=C[C@@H]21
pIC50 (Protein lin-28 homolog A): 5.15

CC(=O)N(C)c1cccc(-c2ccc3nnc(C)n3n2)c1
pIC50 (Protein lin-28 homolog A): 5.10

c1ccc(CN(CCN(Cc2ccccn2)Cc2ccccn2)Cc2ccccn2)nc1
pIC50 (Protein lin-28 homolog A): 5.60

NCCc1cc(O)c(O)cc1O [OXIDOPAMINE HYDROCHLORIDE]
pIC50 (Protein argonaute-2): 5.79

O=[N+]([O-])c1ccc2nc(-c3ccccc3[N+](=O)[O-])nc(-c3ccccc3)c2c1
pEC50 (BCL1): 4.70

OC(CNc1ccc(N2CCOCC2)cc1)Cn1c2ccc(Br)cc2c2cc(Br)ccc21 (stereo not drawn)
pKd [7]: 5.68

CN(C)CCN1C(=O)c2cccc3cccc(c23)C1=O
Activity [18]: 0.18 RLU

CCCCNC(=O)Nc1cccc(-c2cn(Cc3cn([C@H]4O[C@@H](O[C@@H]5[C@@H](O)[C@H](N)C[C@H](N)[C@H]5O[C@H]5O[C@H](CN)[C@@H](O)[C@H](O)[C@H]5N)[C@H](O)[C@@H]4O[C@H]4O[C@@H](CN)[C@@H](O)[C@H](O)[C@H]4N)nn3)cn2)c1
pIC50 [3]: 4.76 | inhibition [4]: 20% | pIC50 [5]: 4.59

OC(CNc1cccc(Cl)c1)Cn1c2ccc(Br)cc2c2cc(Br)ccc21 (stereo not drawn)
pKd [7]: 5.92 and 6.10

CN[C@@H]1[C@H](O[C@H]2[C@H](O[C@H]3[C@H](O)[C@@H](O)[C@H](N=C(N)N)[C@@H](O)[C@@H]3N=C(N)N)O[C@@H](C)[C@]2(O)C=O)O[C@@H](CO)[C@H](O)[C@H]1O
inhibition [1]: 25%

COc1ccc(NCC(O)Cn2c3ccc(Br)cc3c3cc(Br)ccc32)cc1 (stereo not drawn)
Tm [15]: -2.3 °C | pKd [7]: 6.15 and 6.10

CCCCCCNS(=O)(=O)c1ccc2c(c1)CCCN2
Activity [9]: 11.9 RLU

NC[C@@H]1O[C@H](O[C@H]2[C@@H](O)[C@H](O[C@@H]3[C@@H](O)[C@H](N)C[C@H](N)[C@H]3O[C@H]3O[C@H](CN)[C@@H](O)[C@H](O)[C@H]3N)O[C@@H]2CSCCNC(=O)CCCCCn2cc(Oc3ccc4c(c3)C(=O)N(O)C(=O)C4)nn2)[C@H](N)[C@@H](O)[C@@H]1O
inhibition [20]: 90%

CCCN(CC(=O)N(CCC)CC(=O)N(CC(=O)NCCCNCCCNC(=O)c1csc(-c2csc(CCNC(=O)[C@@H](NC(=O)[C@@H](C)[C@H](O)[C@@H](C)NC(=O)[C@@H](NC(=O)c3nc([C@H](CC(N)=O)NC[C@H](N)C(N)=O)nc(N)c3C)[C@@H](O[C@@H]3O[C@@H](CO)[C@@H](O)[C@H](O)[C@@H]3O[C@H]3O[C@H](CO)[C@@H](O)[C@H](OC(N)=O)[C@@H]3O)c3c[nH]cn3)[C@@H](C)O)n2)n1)Cc1cn(CCCNC(=O)CCCOc2c(C(C)(C)C)cc(-c3nc4ccc(N5CCN(C)CC5)cc4[nH]3)cc2C(C)(C)C)nn1)C(=O)CCCOc1cccc(-c2nc3ccc(-c4nc5ccc(N6CCN(C)CC6)cc5[nH]4)cc3[nH]2)c1
pKd [16]: 7.19

CCCCNC(=O)Nc1ccc2oc(CCc3cn([C@H]4O[C@@H](O[C@@H]5[C@@H](O)[C@H](N)C[C@H](N)[C@H]5O[C@H]5O[C@H](CN)[C@@H](O)[C@H](O)[C@H]5N)[C@H](O)[C@@H]4O[C@H]4O[C@@H](CN)[C@@H](O)[C@H](O)[C@H]4N)nn3)nc2c1
pIC50 [3]: 4.68 | inhibition [4]: 20% | pIC50 [5]: 4.79
